These results are taken from ChEMBL document CHEMBL1146406, “Inhibition of Bacterial RNA Polymerases. Peptide Metabolites from the Cultures of Streptomyces sp” (J Nat Prod, 1997).

The test system of experiment [1] is Staphylococcus aureus. In words: (§1) Inhibition of Staphylococcus aureus RNA polymerase by high throughput filtration assay.
Experiment [2] concerns Escherichia coli. In words: (§2) Inhibition of Escherichia coli RNA polymerase by high throughput filtration assay.
Experiment [3] can be described thus: as §1.
The species named for experiment [4] is Homo sapiens. The experiment in a line: Inhibition of human RNA polymerase.
Experiment [5] is described as follows: as §2.

SMILES strings stand for the structures. The source made the active and inactive calls. No cut-off for these calls is given here. Numbered stars: 1 amine (or outer) side, 2 acyl side, 3 side chain; on linkers, the order of the positions; unused ones are H or OH. Bridge positions count the residues as written; N and C are the ends. Square brackets hold non-standard residues; d marks the D form. Peptide text beside a SMILES is read from it. * marks the point of attachment. X2 = C[C@H](Oc1ccc([C@H](N[*:1])C(=O)[*:2])cc1)[C@@]1(/C=C/C(=O)[*:3])CO1; X1 = CC(C)[C@H](O)[C@H](C)C(=O)*; aIle = CC[C@@H](C)[C@H](N)C(=O)O; dNMeF = CN[C@H](Cc1ccccc1)C(=O)O; aThr = C[C@H](O)[C@H](N)C(=O)O

As for `CC[C@@H](C)[C@@H]1NC(=O)[C@@H](CC(C)C)NC(=O)[C@H](CC(C)C)NC(=O)[C@H](Cc2c[nH]c3ccccc23)NC(=O)CNC(=O)[C@H](CC(N)=O)NC1=O` (cyclo(GWL[dL][aIle]N)), the result in experiment [1] and in experiment [2] was inactive.
The term IC50 denotes the point on the concentration scale where inhibition reaches its midpoint. Read a low IC50 as higher potency. `CC[C@@H](C)[C@@H]1NC(=O)[C@H](NC(=O)[C@@H](C)[C@@H](O)C(C)C)[C@H](C)OC(=O)[C@H]2COC(=O)CNC(=O)/C=C/[C@@]3(CO3)[C@H](C)Oc3ccc(cc3)[C@H](NC1=O)C(=O)N(C)[C@H](Cc1ccccc1)C(=O)N[C@@H]([C@H](C)O)C(=O)N2` [SALINAMIDE A] (X1-[dT][aIle][X2][dNMeF][aThr][dS]; ester 1-C; linker 3-6 via G): the IC50 in experiment [3] and in experiment [5] was 0.5 µM throughout. The outcome in experiment [4] was inactive.
